Reference: ChEMBL document CHEMBL5321241, “Identification of new hit to lead magmas inhibitors as potential therapeutics for glioblastoma” (Bioorg Med Chem Lett, 2023)

Columns and labels:
U-251 = experiment: Anticancer activity against human U-251 cells assessed as cell growth inhibition inhibition incubated for 3 days; assay type: functional, cell-based; settings: U-251, 72 h
[1] = Anticancer activity against human D-54MG cells assessed as cell growth inhibition inhibition incubated for 3 days; assay type: functional, cell-based; settings: D54MG, 72 h
[2] = Anticancer activity against patient-derived DB93 cells assessed as cell growth inhibition incubated for 3 days; assay type: functional, cell-based; settings: Homo sapiens, DB93, 72 h
[3] = Lipophilicity, logP of compound; assay type: physicochemical; settings: octanol/water
LN-229 = experiment: Anticancer activity against human LN-229 cells assessed as cell growth inhibition inhibition incubated for 3 days; assay type: functional, cell-based; settings: LN-229, 72 h
[4] = Anticancer activity against patient-derived DB70 cells assessed as cell growth inhibition inhibition incubated for 3 days; assay type: functional, cell-based; settings: Homo sapiens, DB70, 72 h

IC50 (U-251)	logP ([3]; read-out: logP)	logP [3]	SMILES	IC50 [1]	IC50 [2]	IC50 (LN-229)	IC50 [4]
5.06 µM	3.98		CCC1=C(C)/C(=C/c2ccc(C(=O)NC(=N)N)cc2)CCC1(C)C	5.6 µM	2.09 µM	6.54 µM	1.77 µM
10 µM	8.12		CCC1=C(C)/C(=C/c2ccc(-c3noc(-c4ccc(Cl)cc4)n3)cc2)CCC1(C)C	> 100 µM			
4.47 µM	5.78		CCC1=C(C)/C(=C/c2ccc(C(=O)Nc3nc4ccccc4[nH]3)cc2)CCC1(C)C			> 75 µM	
56.8 µM	4.53		CCC1=C(C)/C(=C/c2ccc(/C(N)=N/O)cc2)CCC1(C)C	66.6 µM			
83.8 µM	5.25		CCC1=C(C)/C(=C/c2ccc(C#N)cc2)CCC1(C)C	72.2 µM			
26.8 µM	6.5		CCC1=C(C)/C(=C/c2ccc(C3=NOB(c4ccccc4)N3)cc2)CCC1(C)C	47.4 µM	8.31 µM	60 µM	13.3 µM
> 100 µM	6.22		CCC1=C(C)/C(=C/c2ccc(-c3noc(-c4ccncc4)n3)cc2)CCC1(C)C			> 100 µM	
58.4 µM		9.09	CCC1=C(C)/C(=C/c2ccc(-c3noc(-c4ccccc4OC(F)(F)F)n3)cc2)CCC1(C)C	65.6 µM			
	7.14		CCC1=C(C)/C(=C/c2ccc(C(=O)Nc3ccc(Cl)cc3Cl)cc2)CCC1(C)C				
37.8 µM	6.22		CCC1=C(C)/C(=C/c2ccc(-c3noc(-c4cccnc4)n3)cc2)CCC1(C)C			35.6 µM	
> 100 µM	5.63		CCC1=C(C)/C(=C/c2ccc(C(=O)Nc3ccc(O)cc3)cc2)CCC1(C)C	> 100 µM			
7 µM	8.39		CCC1=C(C)/C(=C/c2ccc(-c3noc(-c4ccc(Br)cc4)n3)cc2)CCC1(C)C	> 100 µM			
> 100 µM	6.37		CCC1=C(C)/C(=C/c2ccc(C(=O)Nc3ccc4[nH]c(C(F)(F)F)nc4c3)cc2)CCC1(C)C			> 100 µM	
> 100 µM	5.74		CCC1=C(C)/C(=C/c2ccc(C(=O)Nc3nccs3)cc2)CCC1(C)C			> 100 µM	
6.04 µM	6.94		CCC1=C(C)/C(=C/c2ccc(C(=O)Nc3ccc(C(F)(F)F)cc3)cc2)CCC1(C)C	3.81 µM	> 50 µM	5.93 µM	> 50 µM
19.3 µM	7.22		CCC1=C(C)/C(=C/c2ccc(C(=O)Nc3nc4ccccc4s3)cc2)CCC1(C)C	6.64 µM	3.54 µM	22.8 µM	6.67 µM
75 µM	8.05		CCC1=C(C)/C(=C/c2ccc(C(=O)Nc3nc4ccc(Br)cc4s3)cc2)CCC1(C)C	100 µM			
20.7 µM	7.55		CCC1=C(C)/C(=C/c2ccc(C(=O)Nc3ccc(OC(F)(F)F)cc3)cc2)CCC1(C)C			47.5 µM	
> 500 µM		-1.15	Cn1nnc2c(C(N)=O)ncn2c1=O [TEMOZOLOMIDE]	> 500 µM	> 500 µM	> 1000 µM	25.4 µM
